Test results reported in ChEMBL document CHEMBL1201862, “PubChem BioAssay data set” (2004).
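Protocol summary: plate cells (96-well), add compound at 5 concentrations, incubate 48 h, interpolate endpoints linearly. GI50 = concentration required for 50% inhibition of growth.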 Active and inactive are the calls of the source. Rule as the data show it: active = GI50 up to about 1.1 µM and inactive = higher.

Key:
Experiment in all cases: growth of human tumour cells (NCI), 48 h
UO-31 = tested on: UO-31
NCI-H522 = tested on: NCI-H522
KM12 = tested on: KM12
U-251 = tested on: U-251
A549 = tested on: A549
SF-268 = tested on: SF-268
SK-MEL-2 = tested on: SK-MEL-2
CCRF-CEM = tested on: CCRF-CEM
OVCAR-4 = tested on: OVCAR-4
OVCAR-3 = tested on: OVCAR-3
TK-10 = tested on: TK-10
HOP-62 = tested on: HOP-62
786-0 = tested on: 786-0
SNB-19 = tested on: SNB-19
UACC-62 = tested on: UACC-62
MOLT-4 = tested on: MOLT-4
MDA-N = tested on: MDA-N
SK-OV-3 = tested on: SK-OV-3
NCI-H23 = tested on: NCI-H23

| SMILES | GI50 (UO-31) | GI50 (NCI-H522) | GI50 (KM12) | GI50 (U-251) | GI50 (A549) | GI50 (SF-268) | GI50 (SK-MEL-2) | GI50 (CCRF-CEM) | GI50 (OVCAR-4) | GI50 (OVCAR-3) | GI50 (TK-10) | GI50 (HOP-62) | GI50 (786-0) | GI50 (SNB-19) | GI50 (UACC-62) | GI50 (MOLT-4) | GI50 (MDA-N) | GI50 (SK-OV-3) | GI50 (NCI-H23) |
| --- | --- | --- | --- | --- | --- | --- | --- | --- | --- | --- | --- | --- | --- | --- | --- | --- | --- | --- | --- |
| N=C(CC(=O)Nc1ccccn1)c1ccccc1 | > 100 µM (inactive) | > 100 µM (inactive) | > 100 µM (inactive) | > 100 µM (inactive) | > 100 µM (inactive) | > 100 µM (inactive) | > 100 µM (inactive) | > 100 µM (inactive) | > 100 µM (inactive) | > 100 µM (inactive) | > 100 µM (inactive) | > 100 µM (inactive) | > 100 µM (inactive) | > 100 µM (inactive) | > 100 µM (inactive) | > 100 µM (inactive) | > 100 µM (inactive) | > 100 µM (inactive) | > 100 µM (inactive) |
| Nc1nc(=O)c(/N=N/c2ccccc2)c(C(=O)O)[nH]1 | > 100 µM (inactive) | 52.7 µM (inactive) | > 100 µM (inactive) | 56.9 µM (inactive) | 84.5 µM (inactive) | 72.3 µM (inactive) | > 100 µM (inactive) | 40.1 µM (inactive) | > 100 µM (inactive) | 98.4 µM (inactive) | > 100 µM (inactive) | 55.3 µM (inactive) | 71.6 µM (inactive) | > 100 µM (inactive) | > 100 µM (inactive) | 46.3 µM (inactive) | > 100 µM (inactive) | > 100 µM (inactive) | > 100 µM (inactive) |
| N#CCCN(CCC#N)c1ccc(C(/N=N/c2ccccc2)=N\c2ccccc2)cc1 | > 100 µM (inactive) | 59.6 µM (inactive) | > 100 µM (inactive) | > 100 µM (inactive) | > 100 µM (inactive) | > 100 µM (inactive) | > 100 µM (inactive) | > 100 µM (inactive) | > 100 µM (inactive) | > 100 µM (inactive) | > 100 µM (inactive) | > 100 µM (inactive) | > 100 µM (inactive) | > 100 µM (inactive) | > 100 µM (inactive) | > 100 µM (inactive) | > 100 µM (inactive) | > 100 µM (inactive) | > 100 µM (inactive) |
| N#CC1=C(N)N(c2ccccc2)C(c2ccccc2)C1(C#N)C#N (stereo not drawn) | 18.1 µM (inactive) | 16.3 µM (inactive) | 14.5 µM (inactive) | 17.1 µM (inactive) | 17.8 µM (inactive) | 22.6 µM (inactive) | 16.4 µM (inactive) | 12.8 µM (inactive) | 19.6 µM (inactive) | 17.8 µM (inactive) | 16.5 µM (inactive) | 18 µM (inactive) | 17.5 µM (inactive) | 18.4 µM (inactive) | 18.2 µM (inactive) | 12.3 µM (inactive) | 19.3 µM (inactive) | 24.9 µM (inactive) | 20.8 µM (inactive) |
| Cn1c(N/N=C/c2ccccc2)nc(-c2ccc3c(c2)OCO3)c(C#N)c1=O | 77.3 µM (inactive) | > 100 µM (inactive) | 88.1 µM (inactive) | > 100 µM (inactive) | 45.4 µM (inactive) | > 100 µM (inactive) | > 100 µM (inactive) | 94 µM (inactive) | 61.7 µM (inactive) | 27.5 µM (inactive) | 69.7 µM (inactive) | > 100 µM (inactive) | > 100 µM (inactive) | > 100 µM (inactive) | 40.3 µM (inactive) | 48.4 µM (inactive) | > 100 µM (inactive) | > 100 µM (inactive) | > 100 µM (inactive) |
| C[C@H]1[C@H]2[C@H](C[C@@]3(C)C4=CC[C@H]5C(C)(C)[C@@H](OC6OCC(O)C(O)C6O)CC[C@@]56C[C@@]46CC[C@]23C)O[C@@]2(O)[C@@H]1OC(C)(C)[C@H]2O (stereo partly drawn) | 3.57 µM (inactive) | 0.605 µM (active) | 1.48 µM (inactive) | 1.69 µM (inactive) | 1.4 µM (inactive) | 0.914 µM (active) | 5.53 µM (inactive) | 0.791 µM (active) | 1.92 µM (inactive) | 3.01 µM (inactive) | 1.17 µM (inactive) | 1.78 µM (inactive) | 1.06 µM (active) | 2.49 µM (inactive) | 1.61 µM (inactive) | 3.96 µM (inactive) | 2.28 µM (inactive) | 1.74 µM (inactive) | 1.09 µM (active) |
| [N-]=[N+]=NC1C(O)C(CO)OC1n1ccc(N)nc1=O (stereo not drawn) | 228 µM (inactive) | 37.6 µM (inactive) | 187 µM (inactive) | 195 µM (inactive) | 219 µM (inactive) | 191 µM (inactive) | 76.7 µM (inactive) | 0.444 µM (active) | > 625 µM (inactive) | 68.2 µM (inactive) | 175 µM (inactive) | 104 µM (inactive) | 118 µM (inactive) | 18.2 µM (inactive) | 147 µM (inactive) | 2.3 µM (inactive) | 93.1 µM (inactive) | > 625 µM (inactive) | 29.9 µM (inactive) |
